Data from patent US9796714B2, “Calcium channel agonists” (University of Pittsburgh—Of the Commonwealth System of …, priority 2013, dated 2017).

Columns and labels:
[1] = tested on: LEMS passive transfer mouse NMJs; assay: Intracellular recordings at LEMS passive transfer mouse NMJs, ex vivo ETA nerve-muscle preparation (Example 3); conditions: 50 μM, mean±SD, aBC2 LEMS passive transfer NMJs
Experimental: LEMS passive transfer. To test GV-58 in a LEMS model NMJ, an established LEMS passive transfer mouse model was utilized. To perform the passive transfer of LEMS, mice were injected with the serum of patients diagnosed with LEMS. […] Each serum sample was tested for the presence of voltage-gated Ca^2+ channel antibodies using a Ca^2+ channel antibody radioimmune assay (Kronus RIA kit, Star, Id.). Control serum was obtained from the University of Pittsburgh Medical Center blood bank. […]; 25-32 g; Charles River Laboratories) were divided into two groups: one group that received LEMS serum, and a control group that received control serum.
Intracellular recordings at mouse NMJs. […] A thin upper arm muscle, the epitrochleoanconeus (ETA), was chosen for these recordings. […] […]. A train of 10 EPPs was also collected in each muscle fiber using an inter-stimulus interval of 20 msec. To analyze the data, both the amplitudes and the areas under the waveforms (integral) were determined after correcting each digitized point in each trace for non-linear summation. Data were collected and analyzed using an Axoclamp 900A and the pClamp 10 suite of programs (Molecular Devices, Sunnyvale, Calif.).
Statistical Analysis. […] For the dose-response analyses on Ca^2+ current, each concentration of the four different compounds was tested in 3-6 cells. […]. All EC50 and IC50 values and their respective errors were determined by performing 100 iterations of a logistic function curve fit.

[2] = target: T1, N-type Ca^2+ channel (Cav2.2) (Rattus norvegicus, UniProt Q02294); assay: N-type Ca2+ channel agonist activity, whole-cell perforated patch clamp of tail currents in tsA201 cells; assay type: cell-based; conditions: for EC50: whole cell perforated patch clamp, deactivation (tail) currents from N-type channels, read-out: N-Type Ca^2+ Channel Activity EC50 +/− SEM
T1 construct: expressed in transfected cells; later also transient transfection
Experimental: tsA201 cells expressing calcium channels. […] For subsequent evaluation of effects on N-, P/Q-, or L-type channels, tsA-201 cells were transiently transfected with Cav2.2, Cav2.1, or Cav1.3, in combination with Cavβ3 and […] (Addgene, Cambridge Mass.) using FuGENE 6 (Life Technologies, Grand Island, N.Y.). All cells were maintained in DMEM supplemented with 10% fetal bovine serum. For the stable cell line expressing N-type channels, 25 μg/mL zeocin, 5 μg/mL blasticidin, and 25 μg/mL hygromycin were added as selection agents.
Whole-cell patch clamp recordings of calcium current. […] Briefly, the pipette solution consisted of […] Cs2SO4, 60 mM CsCl, 1 mM MgCl2, 10 mM 4-(2-hydroxyethyl)-1-piperazineethanesulfonic acid (HEPES) at pH 7.4. […] Patch pipettes were fabricated from borosilicate glass and pulled to a resistance of about 1 MΩ. Before each experiment, a stock solution consisting of 3 mg amphotericin-B dissolved into 50 μL anhydrous DMSO was made. […] Capacitive currents and passive membrane responses to voltage commands were subtracted from the data. Currents were amplified by an Axopatch 200B amplifier, filtered at 5 KHz, and digitized at 10 KHz for subsequent analysis using pClamp software (Axon Instruments/Molecular Devices; Sunnyvale, Calif.). […] To measure effects on calcium channel tail currents, the tail current integral was measured before and after application of a derivative, with the integral of each trace being normalized to its peak. All experiments were carried out at room temperature (22° C.). […] All other salts and chemicals were obtained from Sigma-Aldrich chemical company (St. Louis, Mo.).
Statistical Analysis. Statistical analysis was performed using either GraphPad Prism 5 (GraphPad Software, Inc.) or Origin 7 (OriginLab) software. For the dose-response analyses on Ca^2+ current, each concentration of the four different compounds was tested in 3-6 cells. […] All EC50 and IC50 values and their respective errors were determined by performing 100 iterations of a logistic function curve fit. Data are presented as mean±s.e.m. unless otherwise noted.

[3] = cited from earlier work
LEMS model NMJs = assay: Intracellular recordings at LEMS model mouse NMJs, 13x, DAP and combination (Example 4); conditions: 50 μM 13x, […] DAP, or both
Experimental: To test this, intracellular microelectrode recordings were performed on ex vivo nerve-muscle preparations taken from LEMS passive-transfer model mice and measured the magnitude of acetylcholine released at the neuromuscular junction. The most sensitive method of quantifying the magnitude of acetylcholine released is to determine the quantal content. Quantal content is defined as the number of neurotransmitter-containing synaptic vesicles that are released from the nerve terminal during a single action potential stimulus. This value was determined by first measuring the area under the average action potential-evoked endplate potential (EPP) and then dividing this value by the area under the average single vesicle release event (miniature endplate potential; mEPP). This value could be compared between experimental groups to provide an accurate measurement of changes in the magnitude of acetylcholine released during a single action potential. Using this approach, the quantal content among five experimental conditions was compared: control NMJs, LEMS NMJs, LEMS NMJs exposed to 50 μM 13x, LEMS NMJs exposed to 1.5 μM DAP, and LEMS NMJs exposed to 50 μM 13x+1.5 μM DAP (FIG. 10). […]; EPP amplitude=10.18±0.62 mV) as compared with control serum treated mouse NMJs (QC=107.5±3.6; EPP amplitude=34.62±1.37 mV; Tarr et al., 2013). […] In fact, this 13x-mediated enhancement was very similar to what was observed after exposure of LEMS model NMJs to 1.5 μM DAP (QC=49.0±4.4; EPP amplitude=17.94±1.381 mV). […]; EPP amplitude=34.62±1.37 mV; Tarr et al., 2013). […] In summary, while either 13x or DAP alone caused about an 80% increase in transmitter release from LEMS model NMJs, the combination of 13x plus DAP caused about a 300% increase in transmitter release.

[4] = oral administration to patients

T1 sequence (Q02294 whole entry): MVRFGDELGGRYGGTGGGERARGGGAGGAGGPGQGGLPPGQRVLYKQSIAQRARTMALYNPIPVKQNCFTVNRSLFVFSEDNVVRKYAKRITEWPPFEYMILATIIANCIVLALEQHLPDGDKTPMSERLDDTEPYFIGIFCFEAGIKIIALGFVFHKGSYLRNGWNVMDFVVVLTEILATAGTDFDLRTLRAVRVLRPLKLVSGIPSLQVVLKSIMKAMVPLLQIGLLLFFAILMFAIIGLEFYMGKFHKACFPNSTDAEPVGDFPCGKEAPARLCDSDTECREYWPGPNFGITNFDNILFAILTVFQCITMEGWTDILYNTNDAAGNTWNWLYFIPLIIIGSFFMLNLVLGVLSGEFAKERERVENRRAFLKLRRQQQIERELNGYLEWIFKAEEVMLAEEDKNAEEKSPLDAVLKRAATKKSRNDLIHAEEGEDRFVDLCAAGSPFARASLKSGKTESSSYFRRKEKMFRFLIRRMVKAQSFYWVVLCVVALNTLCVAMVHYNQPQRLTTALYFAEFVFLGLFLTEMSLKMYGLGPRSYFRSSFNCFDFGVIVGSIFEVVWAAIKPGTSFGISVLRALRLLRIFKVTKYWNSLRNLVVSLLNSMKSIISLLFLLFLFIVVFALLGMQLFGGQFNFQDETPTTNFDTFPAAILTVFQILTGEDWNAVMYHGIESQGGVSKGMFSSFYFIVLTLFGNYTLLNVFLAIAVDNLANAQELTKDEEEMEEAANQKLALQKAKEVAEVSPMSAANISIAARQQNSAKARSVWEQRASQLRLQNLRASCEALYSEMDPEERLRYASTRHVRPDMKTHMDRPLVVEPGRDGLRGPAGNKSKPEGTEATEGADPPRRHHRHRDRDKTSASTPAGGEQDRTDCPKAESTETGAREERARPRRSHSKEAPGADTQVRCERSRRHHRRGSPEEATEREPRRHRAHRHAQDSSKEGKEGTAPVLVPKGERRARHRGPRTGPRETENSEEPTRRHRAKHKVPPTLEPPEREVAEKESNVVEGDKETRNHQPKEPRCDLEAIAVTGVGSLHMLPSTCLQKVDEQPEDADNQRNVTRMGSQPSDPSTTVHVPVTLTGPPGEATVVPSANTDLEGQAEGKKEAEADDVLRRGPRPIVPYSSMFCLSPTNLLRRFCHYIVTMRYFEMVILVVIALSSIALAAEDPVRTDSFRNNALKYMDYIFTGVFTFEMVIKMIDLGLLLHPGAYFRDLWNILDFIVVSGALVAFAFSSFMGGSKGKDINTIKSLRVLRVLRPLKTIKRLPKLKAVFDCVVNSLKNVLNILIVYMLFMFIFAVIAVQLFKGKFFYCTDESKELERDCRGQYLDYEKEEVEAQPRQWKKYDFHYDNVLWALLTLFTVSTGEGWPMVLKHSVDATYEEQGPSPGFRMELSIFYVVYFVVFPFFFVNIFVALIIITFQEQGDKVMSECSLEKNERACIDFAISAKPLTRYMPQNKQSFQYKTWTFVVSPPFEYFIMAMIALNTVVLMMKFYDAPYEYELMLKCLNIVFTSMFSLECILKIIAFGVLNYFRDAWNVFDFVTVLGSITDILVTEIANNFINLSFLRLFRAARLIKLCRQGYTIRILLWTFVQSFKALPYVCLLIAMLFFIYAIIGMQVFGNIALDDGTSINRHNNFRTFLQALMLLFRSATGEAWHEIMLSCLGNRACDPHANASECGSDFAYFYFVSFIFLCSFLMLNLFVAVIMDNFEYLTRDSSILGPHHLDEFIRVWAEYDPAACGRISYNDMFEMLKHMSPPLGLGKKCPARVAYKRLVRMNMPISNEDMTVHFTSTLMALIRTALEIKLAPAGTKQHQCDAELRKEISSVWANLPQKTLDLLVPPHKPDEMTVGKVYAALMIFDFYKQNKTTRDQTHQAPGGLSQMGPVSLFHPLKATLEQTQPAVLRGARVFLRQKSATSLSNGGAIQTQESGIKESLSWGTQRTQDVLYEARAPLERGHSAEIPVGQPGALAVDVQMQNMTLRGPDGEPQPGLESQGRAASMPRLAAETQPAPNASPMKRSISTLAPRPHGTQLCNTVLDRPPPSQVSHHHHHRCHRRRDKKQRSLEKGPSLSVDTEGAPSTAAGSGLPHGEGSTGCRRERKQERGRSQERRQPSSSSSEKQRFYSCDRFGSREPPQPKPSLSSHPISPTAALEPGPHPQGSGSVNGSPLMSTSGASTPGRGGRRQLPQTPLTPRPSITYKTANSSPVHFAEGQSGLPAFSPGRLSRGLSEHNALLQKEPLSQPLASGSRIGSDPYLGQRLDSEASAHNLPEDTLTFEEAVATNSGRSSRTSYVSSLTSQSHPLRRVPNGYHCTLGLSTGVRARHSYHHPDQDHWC

SMILES | EC50 [2] [µM] | further results
Cn1cnc2c(NCc3ccccc3)nc(NCCO)nc21 [olomoucine, reference compound] |  | quantal content (EPP peak amplitude divided by mEPP peak amplitude) [1]: 33.4±11.3; quantal content determined from the area (integral) under EPP and mEPP waveforms [1]: 34.6±11.2; quantal content (EPP peak amplitude divided by mEPP peak amplitude) ([1]; listed as oloumucine): slightly, but significantly smaller; quantal content determined from the area (integral) under EPP and mEPP waveforms ([1]; listed as oloumucine): not significantly different
CCCn1cnc2c(NCc3cccnc3)nc(N[C@H](CC)CO)nc21 [Compound 13f, (R)-2-(9-Propyl-6-(pyridin-3-ylmethylamino)-9H-purin-2-ylamino)butan-1-ol] | > 100 | 
CC[C@H](CO)Nc1nc(NC(c2ccccc2)c2ccccc2)c2ncn(C(C)C)c2n1 [Compound 13t, (R)-2-(6-(Benzhydrylamino)-9-isopropyl-9H-purin-2-ylamino)butan-1-ol] | > 100 | 
CC[C@H](CO)Nc1nc(NCc2ccc(-c3ccccc3)cc2)c2ncn(C)c2n1 [Compound 13h, (R)-2-(6-(Biphenyl-4-ylmethylamino)-9-methyl-9H-purin-2-ylamino)butan-1-ol] | > 100 | 
CC[C@H](CO)Nc1nc(NCCc2ccccc2)c2ncn(C(C)C)c2n1 [Compound 13q, (R)-2-(9-Isopropyl-6-(phenethylamino)-9H-purin-2-ylamino)butan-1-ol] | > 100 | 
CCCn1cnc2c(NCCc3ccccc3)nc(N[C@H](CC)CO)nc21 [Compound 13c, (R)-2-(6-(Phenethylamino)-9-propyl-9H-purin-2-ylamino)butan-1-ol] | > 100 | 
CCCn1cnc2c(NCC3CC3)nc(N[C@H](CC)CO)nc21 [Compound 13g, (R)-2-(6-(Cyclopropylmethylamino)-9-propyl-9H-purin-2-ylamino)butan-1-ol] | > 100 | agonist effect on the Ca^2+ channel tail currents (in words) ([2]; N-type): complete loss of N-type Ca^2+ channel activity
CCCn1cnc2c(NCc3ccc(C(F)(F)F)cc3)nc(N[C@H](CC)CO)nc21 [Compound 13o, (R)-2-(9-Propyl-6-(4-(trifluoromethyl)benzylamino)-9H-purin-2-ylamino)butan-1-ol] | > 100 | 
CC[C@H](CO)Nc1nc(NCC2CC2)c2ncn(C(C)C)c2n1 [Compound 13p, (R)-2-(6-(Cyclopropylmethylamino)-9-isopropyl-9H-purin-2-ylamino)butan-1-ol] | > 100 | 
CCCn1cnc2c(NCc3ccccc3)nc(N[C@H](CC)CO)nc21 [Compound 13d, (R)-2-(6-(Benzylamino)-9-propyl-9H-purin-2-ylamino)butan-1-ol] | 14.2 | increased Ca^2+ channel agonism vs. (R)-roscovitine ([2]; N-type): ca. 2 fold
CC[C@H](CO)Nc1nc(NCc2cccc(C(F)(F)F)c2)c2ncn(C(C)C)c2n1 [Compound 13v, (R)-2-(9-Isopropyl-6-(3-(trifluoromethyl)benzylamino)-9H-purin-2-ylamino)butan-1-ol] | > 100 | 
CC[C@H](CO)Nc1nc(NCc2ccc(-c3ccccc3)cc2)c2ncn(C(C)C)c2n1 [Compound 13s, (R)-2-(6-(Biphenyl-4-ylmethylamino)-9-isopropyl-9H-purin-2-ylamino)butan-1-ol] | > 100 | 
Nc1ccncc1N [DAP, 3,4-diaminopyridine, reference compound] |  | serum levels ([3]; clinical trials, 10-20 mg 3 times per day): about 0.5 μM; peak serum levels [3, 4]: 70 to 150 ng/mL; peak serum levels, corresponding concentration [3, 4]: 0.5 to 1.5 µM; 10th EPP of 50 Hz train as % of the first EPP (short-term plasticity) (LEMS model NMJs): ~132%; increase in transmitter release from LEMS model NMJs (LEMS model NMJs): ~80%; EPP amplitude (LEMS model NMJs; LEMS model NMJs): 17.94±1.381 mV; quantal content (QC, area of EPP divided by area of mEPP) (LEMS model NMJs; LEMS model NMJs, mean±s.e.m.): 49.0±4.4
CC[C@H](CO)Nc1nc(NCc2cccnc2)c2ncn(C(C)C)c2n1 [Compound 13r, (R)-2-(9-Isopropyl-6-(pyridin-3-ylmethylamino)-9H-purin-2-ylamino)butan-1-ol] | > 100 | 
CCCn1cnc2c(NCc3ccc(-c4ccccc4)cc3)nc(N[C@H](CC)CO)nc21 [Compound 13a, (R)-2-(6-(Biphenyl-4-ylmethylamino)-9-propyl-9H-purin-2-ylamino)butan-1-ol] | > 100 | 
CC[C@H](CO)Nc1nc(Nc2ccccc2)c2ncn(C)c2n1 [Compound 13l, (R)-2-(9-Methyl-6-(phenylamino)-9H-purin-2-ylamino)butan-1-ol] | > 100 | 
CC[C@H](CO)Nc1nc(NCCc2ccccc2)c2ncn(C)c2n1 [Compound 13j, (R)-2-(9-Methyl-6-(phenethylamino)-9H-purin-2-ylamino)butan-1-ol] | > 100 | 
CC[C@H](CO)Nc1nc(NCC2CC2)c2ncn(C)c2n1 [Compound 13m, (R)-2-(6-(Cyclopropylmethylamino)-9-methyl-9H-purin-2-ylamino)butan-1-ol] | > 100 | 
CC[C@H](CO)Nc1nc(NCc2cccnc2)c2ncn(C)c2n1 [Compound 13n, (R)-2-(9-Methyl-6-(pyridin-3-ylmethylamino)-9H-purin-2-ylamino)butan-1-ol] | > 100 | 
CCCn1cnc2c(Nc3ccccc3)nc(N[C@H](CC)CO)nc21 [Compound 13e, (R)-2-(6-(Phenylamino)-9-propyl-9H-purin-2-ylamino)butan-1-ol] | > 100 | 
